# Data from patent US10604535B2, “Compounds, compositions and methods” (Denali Therapeutics Inc., priority 2016, dated 2020).
# Molecular target: GST-hRIPK1 (8-327) (Homo sapiens (Human), UniProt Q13546)
# Experiment: Fluorescent Polarization Binding (FP Binding) assay
# Chain of GST-hRIPK1 (8-327) (Q13546 8-327): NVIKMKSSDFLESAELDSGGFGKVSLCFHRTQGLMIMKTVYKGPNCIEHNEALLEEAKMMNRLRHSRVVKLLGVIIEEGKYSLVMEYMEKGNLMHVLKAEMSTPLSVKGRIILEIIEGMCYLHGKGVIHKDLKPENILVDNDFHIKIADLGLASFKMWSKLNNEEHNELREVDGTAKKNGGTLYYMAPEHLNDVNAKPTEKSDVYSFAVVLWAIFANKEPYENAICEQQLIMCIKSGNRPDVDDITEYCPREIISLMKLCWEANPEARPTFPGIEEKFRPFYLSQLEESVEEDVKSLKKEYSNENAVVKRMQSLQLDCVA
row,IC50 [nM],Compound
1,0.1 to 1000,"CN1C(=O)[C@@H](NC(=O)c2cc(C#N)n(Cc3ccc(F)cc3)n2)COc2cccnc21 [Example 159, (S)-5-cyano-1-(4-fluorobenzyl)-N-(5-methyl-4-oxo-2,3,4,5-tetrahydropyrido[3,2-b][1,4]oxazepin-3-yl)-1H-pyrazole-3-carboxamide]"
2,> 3000,"C[C@@H]1Oc2cccnc2N(C)C(=O)[C@H]1NC(=O)c1nnc(Cc2ccccc2)[nH]1 [Example 95, 5-benzyl-N-((2S,3S)-2,5-dimethyl-4-oxo-2,3,4,5-tetrahydropyrido[3,2-b][1,4]oxazepin-3-yl)-4H-1,2,4-triazole-3-carboxamide]"
3,> 3000,"O=C(N[C@@H]1CC2(CC2)c2cccnc2NC1=O)c1nnc(Cc2ccccc2)[nH]1 [Example 98A, (R)-5-benzyl-N-(8′-oxo-6′,7′,8′,9′-tetrahydrospiro[cyclopropane-1,5′-pyrido[2,3-b]azepin]-7′-yl)-4H-1,2,4-triazole-3-carboxamide]"
4,> 3000,"Cn1ncc2c1CC[C@@H](NC(=O)c1nnc(Cc3ccccc3)[nH]1)C(=O)N2 [Example 118A, (R)-5-benzyl-N-(1-methyl-5-oxo-1,4,5,6,7,8-hexahydropyrazolo[4,3-b]azepin-6-yl)-4H-1,2,4-triazole-3-carboxamide]"
5,1000 to 10000,"CN1C(=O)[C@H](NC(=O)c2nn(Cc3ccccc3)cc2F)CCc2cccnc21 [Example 111A, (R)-1-benzyl-4-fluoro-N-(9-methyl-8-oxo-6,7,8,9-tetrahydro-5H-pyrido[2,3-b]azepin-7-yl)-1H-pyrazole-3-carboxamide]"
6,1000 to 10000,"CN1C(=O)[C@@H](NC(=O)c2ncc(S(=O)(=O)c3ccccc3)s2)COc2ccccc21 [Example 49, (S)—N-(5-methyl-4-oxo-2,3,4,5-tetrahydrobenzo[b][1,4]oxazepin-3-yl)-5-(phenylsulfonyl)thiazole-2-carboxamide]"
7,> 3000,"Cn1cc2c(n1)CC[C@@H](NC(=O)c1nnc(Cc3ccccc3)[nH]1)C(=O)N2 [Example 104A, (R)-5-benzyl-N-(2-methyl-5-oxo-2,4,5,6,7,8-hexahydropyrazolo[4,3-b]azepin-6-yl)-4H-1,2,4-triazole-3-carboxamide]"
8,0.1 to 1000,"O=C(N[C@H]1CC2(CC2)c2cccnc2NC1=O)c1nnc(Cc2ccccc2)[nH]1 [Example 98B, (S)-5-benzyl-N-(8′-oxo-6′,7′,8′,9′-tetrahydrospiro[cyclopropane-1,5′-pyrido[2,3-b]azepin]-7′-yl)-4H-1,2,4-triazole-3-carboxamide]"
9,> 3000,"CN1C(=O)[C@H](NC(=O)c2nn(Cc3ccccc3)cc2F)CCc2c1cnn2C [Example 114B, (R)-1-benzyl-N-(1,4-dimethyl-5-oxo-1,4,5,6,7,8-hexahydropyrazolo[4,3-b]azepin-6-yl)-4-fluoro-1H-pyrazole-3-carboxamide]"
10,> 3000,"CN1C(=O)[C@H](NC(=O)c2nn(Cc3ccc(F)cc3)cc2F)[C@@H]2C[C@@H]2c2cccnc21 [Example 156A, 4-fluoro-1-(4-fluorobenzyl)-N-((1aR,2R,8bS)-4-methyl-3-oxo-1,1a,2,3,4,8b-hexahydrocyclopropa[d]pyrido[2,3-b]azepin-2-yl)-1H-pyrazole-3-carboxamide]"
11,> 3000,"Cc1ncccc1Cn1cc(F)c(C(=O)N[C@@H]2CCc3nccnc3N(C)C2=O)n1 [Example 182A, (R)-4-fluoro-N-(5-methyl-6-oxo-6,7,8,9-tetrahydro-5H-pyrazino[2,3-b]azepin-7-yl)-1-((2-methylpyridin-3-yl)methyl)-1H-pyrazole-3-carboxamide]"
12,> 3000,"CN1C(=O)C(NC(=O)c2nnc(Cc3ccccc3)[nH]2)[C@@H]2C[C@@H]2c2ccccc21 (stereo in doubt) [Example 46B, 5-benzyl-N-((2S)-4-methyl-3-oxo-1,1a,2,3,4,8b-hexahydrobenzo[b]cyclopropa[d]azepin-2-yl)-4H-1,2,4-triazole-3-carboxamide]"
13,> 10000,"CN1C(=O)[C@@H](NC(=O)C2CN(Cc3ccccc3)C2)COc2ccccc21 [Example 33, (S)-1-benzyl-N-(5-methyl-4-oxo-2,3,4,5-tetrahydrobenzo[b][1,4]oxazepin-3-yl) azetidine-3-carboxamide]"
14,> 3000,"CN1C(=O)[C@H](NC(=O)c2nnc(C3(c4ccccc4)CC3)o2)CCc2nccnc21 [Example 180B, (R)—N-(5-methyl-6-oxo-6,7,8,9-tetrahydro-5H-pyrazino[2,3-b]azepin-7-yl)-5-(1-phenylcyclopropyl)-1,3,4-oxadiazole-2-carboxamide]"
15,> 3000,"CN1C(=O)[C@H](NC(=O)c2nnc(Cc3ccccc3)s2)[C@@H]2C[C@@H]2c2cccnc21 [Example 120B, 5-benzyl-N-((1aR,2R,8bS)-4-methyl-3-oxo-1,1a,2,3,4,8b-hexahydrocyclopropa-[d]pyrido[2,3-b]azepin-2-yl)-1,3,4-thiadiazole-2-carboxamide]"
16,> 3000,"CN1C(=O)[C@H](NC(=O)c2nnc(Cc3ccccc3)[nH]2)CCc2nn(C)cc21 [Example 105B, (R)-5-benzyl-N-(2,4-dimethyl-5-oxo-2,4,5,6,7,8-hexahydropyrazolo[4,3-b]azepin-6-yl)-4H-1,2,4-triazole-3-carboxamide]"
17,0.1 to 1000,"CN1C(=O)[C@@H](NC(=O)c2cc3n(n2)CC[C@@H]3c2ccccc2)COc2ccccc21 [Example 13, (R)—N—((S)-5-methyl-4-oxo-2,3,4,5-tetrahydrobenzo[b][1,4]oxazepin-3-yl)-4-phenyl-5,6-dihydro-4H-pyrrolo[1,2-b]pyrazole-2-carboxamide]"
18,> 3000,"CN1C(=O)[C@H](NC(=O)c2nn(Cc3ccccc3)cc2F)CCc2nn(C)cc21 [Example 109B, (R)-1-benzyl-N-(2,4-dimethyl-5-oxo-2,4,5,6,7,8-hexahydropyrazolo[4,3-b]azepin-6-yl)-4-fluoro-1H-pyrazole-3-carboxamide]"
19,> 3000,"[2H]C([2H])([2H])N1C(=O)[C@H](NC(=O)c2nn(Cc3ccccc3)cc2F)[C@@H]2C[C@@H]2c2cc(S(C)(=O)=O)ccc21 [Example 183A, 1-benzyl-4-fluoro-N-((1aR,2R,8bS)-4-trideuteriomethyl-7-(methylsulfonyl)-3-oxo-1,1a,2,3,4,8b-hexahydrobenzo[b]cyclopropa[d]azepin-2-yl)-1H-pyrazole-3-carboxamide]"
20,> 3000,"N#Cc1cccc(Cc2nnc(C(=O)N[C@H]3C(=O)Nc4c(F)cc(F)cc4[C@H]4C[C@H]43)[nH]2)c1 [Example 181A, 5-(3-cyanobenzyl)-N-((1aR,2R,8bS)-5,7-difluoro-3-oxo-1,1a,2,3,4,8b-hexahydrobenzo[b]cyclopropa[d]azepin-2-yl)-4H-1,2,4-triazole-3-carboxamide]"
21,> 3000,"Cc1cnn2c1N(C)C(=O)[C@H](NC(=O)c1nnc(Cc3ccccc3)[nH]1)CC2 [Example 131B, (R)-5-Benzyl-N-(3,4-dimethyl-5-oxo-5,6,7,8-tetrahydro-4H-pyrazolo[1,5-a][1,3]diazepin-6-yl)-4H-1,2,4-triazole-3-carboxamide]"
22,> 3000,"O=C(N[C@@H]1COc2cccnc2-n2ccnc21)c1nnc(Cc2ccccc2)[nH]1 [Example 141A, (S)-5-Benzyl-N-(6,7-dihydroimidazo[1,2-d]pyrido[3,2-b][1,4]oxazepin-7-yl)-4H-1,2,4-triazole-3-carboxamide]"
23,> 3000,"O=C(N[C@@H]1CC2(CC2)c2cc(F)cc(F)c2NC1=O)c1nnc(Cc2ccccc2)[nH]1 [Example 103A, (R)-5-benzyl-N-(7,9-difluoro-2-oxo-1,2,3,4-tetrahydrospiro[benzo[b]azepine-5,1′-cyclopropan]-3-yl)-4H-1,2,4-triazole-3-carboxamide]"
24,> 3000,"CN1C(=O)[C@H](NC(=O)c2nn(Cc3ccccc3F)cc2F)CCc2nccnc21 [Example 178B, (R)-4-fluoro-1-(2-fluorobenzyl)-N-(5-methyl-6-oxo-6,7,8,9-tetrahydro-5H-pyrazino[2,3-b]azepin-7-yl)-1H-pyrazole-3-carboxamide]"
25,> 3000,"O=C(NC1COc2cccnc2-n2ccnc21)c1nn(Cc2ccccc2)cc1F (stereo in doubt) [Example 154A, (R)-1-benzyl-N-(6,7-dihydroimidazo[1,2-d]pyrido[3,2-b][1,4]oxazepin-7-yl)-4-fluoro-1H-pyrazole-3-carboxamide]"
26,> 3000,"Cc1cc2n(n1)CC[C@@H](NC(=O)c1nnc(Cc3ccccc3)[nH]1)C(=O)N2C [Example 129B, (R)-5-Benzyl-N-(2,4-dimethyl-5-oxo-5,6,7,8-tetrahydro-4H-pyrazolo[1,5-a][1,3]diazepin-6-yl)-4H-1,2,4-triazole-3-carboxamide]"

row,Compound,IC50 [nM]
1,"C[C@H]1Oc2cccnc2N(C)C(=O)[C@H]1NC(=O)c1ccn(Cc2ccccc2)n1 [Example 155, 1-Benzyl-N-((2R,3S)-2,5-dimethyl-4-oxo-2,3,4,5-tetrahydropyrido[3,2-b][1,4]oxazepin-3-yl)-1H-pyrazole-3-carboxamide]",0.1 to 1000
2,"C[C@@H]1Oc2cccnc2N(C)C(=O)[C@H]1NC(=O)c1nn(Cc2ccccc2)cc1F [Example 93, 1-benzyl-N-((2S,3S)-2,5-dimethyl-4-oxo-2,3,4,5-tetrahydropyrido[3,2-b][1,4]oxazepin-3-yl)-4-fluoro-1H-pyrazole-3-carboxamide]",0.1 to 1000
3,"C[C@H]1Oc2cccnc2N(C)C(=O)[C@H]1NC(=O)c1cnn(Cc2ccccc2)n1 [Example 204, 2-benzyl-N-((2R,3S)-2,5-dimethyl-4-oxo-2,3,4,5-tetrahydropyrido[3,2-b][1,4]oxazepin-3-yl)-2H-1,2,3-triazole-4-carboxamide]",0.1 to 1000
4,"CN1C(=O)[C@@H](NC(=O)c2cnc(Cc3ccccc3)[nH]2)COc2cccnc21 [Example 108, (S)-2-benzyl-N-(5-methyl-4-oxo-2,3,4,5-tetrahydropyrido[3,2-b][1,4]oxazepin-3-yl)-1H-imidazole-5-carboxamide]",0.1 to 1000
5,"CN1C(=O)[C@@H](NC(=O)c2ncc(Cc3ccccc3)o2)[C@H]2C[C@H]2c2nccnc21 [Example 194, 5-benzyl-N-((7S,7aS,8aR)-5-methyl-6-oxo-5,6,7,7a,8,8a-hexahydrocyclopropa[d]pyrazino[2,3-b]azepin-7-yl)oxazole-2-carboxamide]",0.1 to 1000
